The values that follow come from patent US11672775B2, “Treprostinil prodrugs” (United Therapeutics Corporation, priority 2016, dated 2023).

≈ marks a conversion by molar mass, not a printed value. Entries after “also recorded” stand apart in the source; their conditions may differ.

The nature of series [1]: Equilibrium solubility in vehicle. The format is physicochemical. The conditions noted are these: 20 mM sodium phosphate dibasic with 125 mM sodium chloride; for solubility thermodynamic at 23 h: read-out: Equilibrium solubility, T0 hours Concentration; for solubility thermodynamic at 24 h: read-out: Equilibrium solubility, T24 hours Concentration; for solubility thermodynamic at 72 h: read-out: Equilibrium solubility, T72 hours Concentration. The protocol:
(§1) Each prodrug was dissolved in a vehicle containing 20 mM sodium phosphate dibasic with 125 mM sodium chloride. Prodrugs were prepared at saturation concentrations by weighing 15-30 mg of prodrug in to a 4 mL clear glass vial and dissolving in an appropriate volume of vehicle (0.5-1.0 mL) to achieve a nominal saturation concentration of 30 mg/mL. The solutions were mixed for 23 hours on a rotating mixer. […] The resultant supernatant solutions were isolated from undissolved prodrug by centrifugation at 15000 RPM for 15 min. Supernatants were transferred to clear glass vials and stored at ambient temperature. […] The resultant samples were assayed against treprostinil to determine prodrug concentration. At each testing interval (0, 24, 72 hours) the supernatant was assayed for prodrug concentration and purity by area %.

Series [2] in a line: Solution stability in vehicle (UPLC area %). The format is physicochemical. The conditions noted are these: for Solution stability, T0 Purity / T0 Residual Treprostinil: 20 mM sodium phosphate dibasic with 125 mM sodium chloride; for Solution stability, T0 Purity: ambient; for Solution stability, T24 hours Purity / Solution stability, T72 hours Purity / T24 Residual Treprostinil / T72 Residual Treprostinil: same vehicle. The method, then: as §1

Series [3] has as its system Sprague Dawley rats. Kind of series: Rat intraplantar injection model, clinical observation score (Example 9). The format is in vivo, Sprague Dawley rat. The conditions noted are these: for clinical score: 15 min; for clinical score vs similar doses of treprostinil: both doses. The method, then: (§2) Male Sprague Dawley rats (n=112) were allocated into 14 groups of 8/group. The study was run in 2 cycles, on consecutive days, 7 groups per cycle. Each cycle was composed of a Saline group, PBS group, which served as the control, and also treprostinil at a dose of 100 μg/mL or 1 μg/mL.
(§3) Animals were administered 0.1 mL of test material by subcutaneous injection into the paw pad (Intraplantar injection) at time zero. Animals were subsequently evaluated for their response to mechanical (von Frey filaments) and thermal stimuli, 15 and 90 minutes post-injection. The von Frey test was conducted prior to the thermal test, which followed immediately within minutes for each animal. In addition, clinical observation scoring of the animal's reaction to injection was conducted. FIG. 16 schematically illustrates the study design.
A Clinical observation score was assigned by assessing for redness, swelling and paw placement.

Series [4] deals with Sprague Dawley rats. Kind of series: Rat intraplantar injection model, von Frey test (Example 9). It counts as in vivo, Sprague Dawley rat. The conditions noted are these: for sensitivity to mechanical stimulation vs similar doses of treprostinil: both doses. The method, then:
as §2, §3
Mechanical pain sensitivity was tested using the von Frey test, which measures the withdrawal force threshold of the animals. The lower the force applied represents a greater sensitivity to the stimulus. The von Frey test was performed 15 and 90 minutes post-Test Item injection.

Series [5] is described as follows: Stability in 200 mM potassium phosphate buffer (pH 7.4). The format is physicochemical. The conditions noted are these: 1 μM. The method, then: According to the earlier aqueous solution stability study, all prodrugs are stable in 20 mM Sodium Phosphate dibasic with 125 mM NaCl at saturation concentrations (3-30 mg/ml). Also, in the method development work, it was also observed that the most unstable prodrugs III, IV and XIV were stable in 200 mM potassium phosphate buffer (pH 7.4) at a low concentration of 1 μM.

For series [6], the system named is Sprague Dawley rats. Kind of series: Rat intraplantar injection model, thermal pain sensitivity (Example 9). It counts as in vivo, Sprague Dawley rat. The conditions noted are these: both doses (1 and 100 μg/mL); both time points. The protocol:
as §2, §3
The sensitivity of animals to a thermal pain stimulus was assessed immediately following the von Frey test. The time until withdrawal of the right-injected leg from a heat source was measured, and the lower (faster) the time of response represents a greater sensitivity to the stimulus. The test was performed 15 and 90 minutes post-Test Item injection.

Setting [7] is: aqueous buffer, thermodynamic from solid, T0 hours.
[8] abbreviates: aqueous buffer, thermodynamic from solid, T24 hours.
Setting [9] is: aqueous buffer, thermodynamic from solid, T72 hours.
Where [10] appears, read: 100 μg/mL (cycle 1), 90 minutes post-injection.
[11] abbreviates: 1 μg/mL or 100 μg/mL, 15 and 90 minutes post-injection.
The mark [12] stands for this setting: only the 1 μg/mL dose, both time points.

Consider `CCCCC[C@H](O)CC[C@@H]1[C@H]2Cc3cccc(OCC(=O)NC(C(=O)O)C(C)C)c3C[C@H]2C[C@H]1O` (stereo partly drawn) [Prodrug XI, treprostinil valine amide], for which the solubility thermodynamic at 23 h in series [1] (setting [7]) was 11500 µg/mL (≈ 23.5 mM). For the same molecule, the solubility thermodynamic at 24 h in series [1] (setting [8]) was determined as 11300 µg/mL (≈ 23.1 mM). In addition, the solubility thermodynamic at 72 h in series [1] (setting [9]) turned out to be 11500 µg/mL (≈ 23.5 mM). Moreover, in series [2], the “Solution stability, T0 Purity” value stood at 99.49 % Area; the “Solution stability, T24 hours Purity” value is reported as 99.39 % Area; the “Solution stability, T72 hours Purity” value is 98.92 % Area.
The solubility is the concentration that dissolves in the medium under given conditions. Consider `CCCCC[C@H](O)CC[C@@H]1[C@H]2Cc3cccc(OCC(=O)N[C@@H](CO)C(=O)O)c3C[C@H]2C[C@H]1O` [Prodrug XIII, treprostinil serine amide], for which, in series [1] (setting [7]), the solubility thermodynamic at 23 h is 3200 µg/mL (≈ 6.7 mM). Besides, the solubility thermodynamic at 24 h in series [1] (setting [8]) was found to be 3700 µg/mL (≈ 7.75 mM). The solubility thermodynamic at 72 h in series [1] (setting [9]) was 3800 µg/mL (≈ 7.96 mM). Also, the solubility at 23 h in series [1] (aqueous buffer, thermodynamic from solid, approximate, read-out: Solubility in the selected vehicle) was about 3500 µg/mL (≈ 7.33 mM). In series [2], the “Solution stability, T0 Purity” value is given as 97.66 % Area; the “Solution stability, T24 hours Purity” value is on record as 97.81 % Area; the “Solution stability, T72 hours Purity” value is 97.58 % Area.
`CCCCC[C@H](O)CC[C@@H]1[C@H]2Cc3cccc(OCC(=O)N[C@@H](C)C(=O)O)c3C[C@H]2C[C@H]1O` [Prodrug X, treprostinil alanine amide]: the solubility thermodynamic at 23 h in series [1] (setting [7]) is 10000 µg/mL (≈ 21.7 mM). For the same molecule, the solubility thermodynamic at 24 h in series [1] (setting [8]) amounted to 10600 µg/mL (≈ 23 mM). In addition, the solubility thermodynamic at 72 h in series [1] (setting [9]) turned out to be 11300 µg/mL (≈ 24.5 mM). Further, in series [2], the “T0 Residual Treprostinil” value amounted to 0.08 % Area; the “Solution stability, T0 Purity” value came out at 96.59 % Area; the “T24 Residual Treprostinil” value is reported as 0.08 % Area; the “T72 Residual Treprostinil” value came out at 0.08 % Area. Moreover, in series [2], the “Solution stability, T24 hours Purity” value came out at 96.32 % Area and the “Solution stability, T72 hours Purity” value is given as 96.54 % Area.
In the case of `CCCCC[C@@H](CC[C@@H]1[C@H]2Cc3cccc(OCC(=O)O)c3C[C@H]2C[C@H]1O)OC(=O)N(C)C` [Prodrug II, treprostinil side-chain carbamate], the clinical score entry in series [3] (100 μg/mL (cycle 1)) is listed as “non-zero”. In addition, the “clinical score vs PBS group” value in series [3] (setting [10]) is recorded as “non-zero”; in series [3] (100 μg/mL, both time points), “not statistically significantly different”. In addition, the “clinical score vs similar doses of treprostinil” value in series [3] (both time points) is reported as “reduced clinical score”. Also, the “von Frey withdrawal force threshold vs PBS-treated group” value in series [4] (setting [11]) was “no statistically significant difference”. Besides, in series [4] (both time points), the “sensitivity to mechanical stimulation vs similar doses of treprostinil” value is “statistically significant reduced sensitivity”.
Take `CCCCC[C@H](O)CC[C@@H]1[C@H]2Cc3cccc(OCC(=O)O)c3C[C@H]2C[C@H]1OC(=O)OC` [Prodrug III, cyclopentyl methyl carbonate of treprostinil]: in series [1] (setting [7]), the solubility thermodynamic at 23 h is 6100 µg/mL (≈ 13.6 mM). Also, the solubility thermodynamic at 24 h in series [1] (setting [8]) was 6000 µg/mL (≈ 13.4 mM). Further, the solubility thermodynamic at 72 h in series [1] (setting [9]) is 6200 µg/mL (≈ 13.8 mM). For the same molecule, in series [2], the “T0 Residual Treprostinil” value was 0.15 % Area; the “Solution stability, T0 Purity” value worked out at 94.48 % Area; the “T24 Residual Treprostinil” value came to 0.14 % Area; the “T72 Residual Treprostinil” value was found to be 0.15 % Area. In series [2], the “Solution stability, T24 hours Purity” value amounted to 94.31 % Area and the “Solution stability, T72 hours Purity” value is given as 94.61 % Area. Besides, in series [5], the stability in buffer result is “stable”.
With “treprostinil monomethyl carbamate [Prodrug VIII]”, the “thermal paw withdrawal time vs PBS group” value in series [6] is recorded as “trend toward reduction in the time of response”. Moreover, the clinical score result in series [3] (100 μg/mL (cycle 1)) is “non-zero”. For the same molecule, the “clinical score vs PBS group” value in series [3] (100 μg/mL, both time points) is on record as “not statistically significantly different”. Moreover, the “clinical score vs similar doses of treprostinil” value in series [3] (both time points) is “reduced clinical score”. The “Equilibrium solubility, T0 hours Concentration” value in series [1] (T0 hours) is 11000 µg/mL. In addition, the “Equilibrium solubility, T24 hours Concentration” value in series [1] (T24 hours) came to 10500 µg/mL. Also, in series [1] (T72 hours), the “Equilibrium solubility, T72 hours Concentration” value stood at 10900 µg/mL. In series [2], the “T0 Residual Treprostinil” value is 0.11 % Area; the “Solution stability, T0 Purity” value is 96.41 % Area; the “T24 Residual Treprostinil” value stood at 0.11 % Area; the “T72 Residual Treprostinil” value is reported as 0.15 % Area. For the same molecule, in series [2], the “Solution stability, T24 hours Purity” value was 96.40 % Area and the “Solution stability, T72 hours Purity” value stood at 96.34 % Area. Further, the “von Frey withdrawal force threshold vs PBS-treated group” value in series [4] (setting [11]) is listed as “no statistically significant difference”. Further, the “sensitivity to mechanical stimulation vs similar doses of treprostinil” value in series [4] (both time points) is given as “statistically significant reduced sensitivity”.
With `CCCCC[C@H](O)CC[C@@H]1[C@H]2Cc3cccc(OCC(=O)NC(CC(=O)O)C(=O)O)c3C[C@H]2C[C@H]1O` (stereo partly drawn) [Prodrug XII, treprostinil aspartic acid amide], in series [1] (setting [7]), the solubility thermodynamic at 23 h amounted to 7400 µg/mL (≈ 14.6 mM). Besides, the solubility thermodynamic at 24 h in series [1] (setting [8]) came out at 7500 µg/mL (≈ 14.8 mM). In addition, the solubility thermodynamic at 72 h in series [1] (setting [9]) came out at 7400 µg/mL (≈ 14.6 mM). Besides, in series [2], the “Solution stability, T0 Purity” value is reported as 98.70 % Area; the “Solution stability, T24 hours Purity” value worked out at 98.68 % Area; the “Solution stability, T72 hours Purity” value is on record as 98.58 % Area.
On to `CCCCC[C@H](O)CC[C@@H]1[C@H]2Cc3cccc(OCC(=O)O)c3C[C@H]2C[C@H]1OC(=O)N(C)C` [Prodrug I, treprostinil ring carbamate], for which the clinical score result in series [3] (100 μg/mL (cycle 1)) is on record as “non-zero”. The “clinical score vs PBS group” value in series [3] (setting [10]) is reported as “non-zero; also recorded: statistically significant increase in the clinical score”. In series [3] (setting [12]), the “clinical score vs similar dose of treprostinil” value is “reduced clinical score”. Further, the “von Frey withdrawal force threshold vs PBS-treated group” value in series [4] (1 μg/mL, both time points post-injection) is “no statistically significant difference”; in series [4] (100 μg/mL, 15 minutes post-injection), “no statistically significant difference”; in series [4] (100 μg/mL, 90 minutes post-injection), “statistically significant increased sensitivity”. In series [4] (setting [12]), the “sensitivity to mechanical stimulation vs similar dose of treprostinil” value was “reduced sensitivity”.
